Laboratory results: patent publication US20260165976A1, “ANTI-EVAPORATIVE LIPID FORMULATIONS” (UNIVERSITY OF HELSINKI, priority 2022, published 2026)
“Also recorded” adds a separate entry of the source.

Assays:
Type in all cases: physicochemical
[1] = Evaporation resistance / evaporation reduction of lipid films (modified Langmuir and Schaefer method); conditions: for evaporation resistance of phospholipid films: FIG. 13C; for evaporation resistance of OAHFA films: individual lipid film on PBS subphase, 35±1° C., FIG. 2
Method: (§1) The lipid components and tailored mixtures dissolved in chloroform, or alternatively, the formulations undergoing characterization studies were spread onto the air-buffer interface of a Langmuir trough, either a Mini trough (KSV, Helsinki, Finland) or a Large trough (KSV NIMA, Biolin Scientific, Espoo, Finland), which was filled with PBS buffer. The samples were allowed to equilibrate for 3 min before starting the measurements. The surface pressure was measured using a Wilhelmy plate, the surface potential was measured using a KSV NIMA Surface Potential Sensor (Espoo, Finland) when relevant and Brewster angle microscopy (BAM) images were captured using a KSV NIMA microBAM (Espoo, Finland) instrument. The films were compressed at a constant rate of 5 or 10 mm/min and the subphase temperature was maintained at 35±1° C. The measurements were performed in an acrylic box under an ozone-free atmosphere to prevent undesired oxidation of the lipids. An ozone-free atmosphere was generated by passing dry air through ODS-3P ozone destruct unit (Ozone solutions, Hull, Iowa) and into the enclosure at a rate of 76 l/min.
The adaptive features of the formulations were uncovered through studying the spreading capabilities of the lipid films over compression-expansion cycles using the Langmuir setup. In more detail, the volume employed of each formulation was the volume required to observe a response in the surface pressure isotherm over one compression-expansion cycle. Altogether, the films were subjected to twenty compression-expansion cycles employing a 50 mm/min. compression/expansion rate and the changes in the surface pressure isotherms were monitored as described above. Evaporation resistance was determined by a modified Langmuir and Schaefer method (Langmuir et al, 1943, J Franklin Inst, 235, 119-162). The measurements were conducted by compressing the film to a specific mean molecular area, ranging between 2-40 Å^2/molecule (for individual compounds), or a specified area (for formulations) and placing a tailored desiccant cartridge, with a water-permeable membrane, approximately 2 mm above the aqueous surface. The commercial silica gel containing desiccant cartridges (SP Industries, Warminster, PA) were modified by replacing the membrane with a Millipore Immobilon-P PVDF membrane (450 nm pore size, Bedford, MA). The desiccant cartridge was fixed in position for 5 minutes and the mass of the absorbed water was determined by gravimetric techniques. In order to take into account the water absorbed from the air inside the enclosure, a second background measurement was conducted in parallel inside the enclosed acrylic box. From the measurements, the evaporation resistance was calculated with the equation (1).
The terms used in the equation are as follows: Adesicant=area of the desiccant cartridge; • t=measuring time; (w-w0)=water concentration difference between the aqueous surface and the surface of the desiccant cartridge; m(I)=water amount absorbed in the presence of the lipid film; mPBS(0)=water amount absorbed in the absence of the lipid film; Δmtot=mass of evaporated water during the measurement; ti=time point D=diffusion coefficient; ρ=water density; ATrough=area of the Langmuir Trough.
The evaporation reduction was determined as the total reduction of water absorbed by a desiccant cartridge when a lipid film was covering the subphase versus the situation when the lipid film was absent. Equation (2) was utilized in the calculations.

[2] = Surface pressure isotherms and Brewster angle microscopy of films on a Langmuir trough; conditions: PBS subphase, 35±1° C.
Method: as §1

[3] = Differential scanning calorimetry (DSC) of active components, phospholipids and liposomal formulations; conditions: heating 10° C./min, triplicate; for Peak Tm1 ± SD / Onset Tm2 ± SD / Peak Tm2 ± SD: in °C (unit assumed)
Method: Differential scanning calorimetry (DSC 2500 with an RCS90 cooling unit; TA instruments, Newcastle, DE, USA) was utilized to study the thermal properties of the active compounds. Nitrogen (N2) was utilized as the purge gas at rate of 50 mL/min during the measurements. […] of the active components were placed into aluminum pans with manually made pin holes (DSC Consumables incorporated, Austin, Minnesota, USA). The samples were subsequently sealed and analyzed with DSC utilizing the TRIOS® software (TA instruments, Newcastle, DE, USA). All results were compared to an empty reference pan containing a pin hole. Each measurement was performed in triplicate. Briefly, the samples were cooled to 0° C., then heated from 0° C. to 75° C. at a rate of 10° C./min. Then, the samples were kept isothermally at 75° C. for 10 min, after which they were equilibrated to −50° C. at an uncontrolled rate. Ultimately, the samples were heated again to 75° C. at a rate of 10° C./min.
The phospholipid bilayer phase transition behavior was studied to assess whether successful integration of the active components into the phospholipid bilayer had been achieved or not. The studies were performed in a similar fashion as described for active components above. In this case, 20 μL of a formulation was pipetted into the aluminum pans (DSC Consumables incorporated, Austin, Minnesota, USA), which were subsequently sealed and analyzed with DSC employing the TRIOS® software (TA instruments, Newcastle, DE, USA). The samples were cooled and equilibrated to 5° C., then heated from 5° C. to 70-85° C. at a rate of 10° C./min and the results were compared to the reference pan containing the liquid used to hydrate the lipid film. All prepared liposomal formulations which viscosity were low enough to be pipetted, were analyzed by DSC and compared to the thermograms obtained from liposomes containing only the PC-component and the thermograms obtained for the active components.

SMILES | Onset Tm1 ± SD [3] | Peak Tm1 ± SD [3] | evaporation resistance of OAHFA films [1] | other results
CCCCCCCCCCCCCCCCCC(=O)OC[C@H](COP(=O)([O-])OCC(O)CO)OC(=O)CCCCCCCCCCCCCCCCC.[Na+] (mixture of isomers) [18:0 PG, 1,2-distearoyl-sn-glycero-3-phospho-rac-(1-glycerol) sodium salt] | – | – | – | evaporation resistance of phospholipid films [1]: highest evaporation resistance; phase behaviour of the film (surface pressure isotherm, BAM) ([2]; sodium salt): suitable properties; also recorded: phase transition occurring at a low surface pressure
CCCCCCCCCCCCCCCCCCO [1-Octadecanol, octadecanol] | 56.49 ± 0.49 | 57.61 ± 0.22 | – | evaporation resistance of long chain fatty alcohols ([1]; FIG. 5): most promising species
CCCCCCCC/C=C\CCCCCCCC(=O)OCCCCCCCCCCCC(=O)O [12:0/18:1-OAHFA, 12-(oleoyloxy)dodecanoic acid] | – | – | significantly weaker evaporation-resistant properties | –
CCCCCCCC/C=C\CCCCCCCC(=O)OCCCCCCCCCCCCCCC(=O)O [15:0/18:1-OAHFA, 15-(oleoyloxy)pentadecanoic acid] | – | – | significantly weaker evaporation-resistant properties | –
CCCCCCCCCCCCCCCC(=O)OC[C@H](COP(=O)(O)OCCN)OC(=O)CCCCCCCCCCCCCCC [16:0 PE, 1,2-dipalmitoyl-sn-glycero-3-phosphoethanolamine] | – | – | – | phase behaviour of the film (surface pressure isotherm, BAM) [2]: suitable properties
CCCCCCCCCCCCCCCCCC(=O)OC[C@H](COP(=O)(O)OCCN)OC(=O)CCCCCCCCCCCCCCCCC [18:0 PE, 1,2-distearoyl-sn-glycero-3-phosphoethanolamine] | – | – | – | evaporation resistance of phospholipid films [1]: highest evaporation resistance; phase behaviour of the film (surface pressure isotherm, BAM) [2]: suitable properties
CCCCCCCCCCCCCCCCCC(=O)OC[C@H](COP(=O)(O)OC[C@H](N)C(=O)[O-])OC(=O)CCCCCCCCCCCCCCCCC.[Na+] [18:0 PS, 1,2-distearoyl-sn-glycero-3-phospho-L-serine (sodium salt)] | – | – | – | phase behaviour of the film (surface pressure isotherm, BAM) [2]: suitable properties
CCCCCCCC/C=C\CCCCCCCC(=O)OCCCCCCCCCCCCCCCCCC(=O)O [18:0/18:1-OAHFA, 18-(oleoyloxy)octadecanoic acid] | 54.92 ± 0.87 | 56.50 ± 0.64 | displays evaporation resistance; also recorded: highest evaporation resistance | phase behaviour of the film (surface pressure isotherm, BAM) [2]: does undergo a liquid to solid phase transition; surface activity / spreading ability [2]: surface active lipids
CCCCCCCC/C=C\CCCCCCCC(=O)OCCCCCCCCCCCCCCCCCCCC(=O)O [20:0/18:1-OAHFA, 20-(oleoyloxy)eicosanoic acid] | 41.65 ± 1.16 | 46.54 ± 0.18 | reasonable degree of evaporation resistance | Onset Tm2 ± SD [3]: 56.89 ± 1.42; Peak Tm2 ± SD [3]: 59.52 ± 0.38
CCCCCCCC/C=C\CCCCCCCC(=O)OCCCCCCC/C=C\CCCCCCCCCCC(=O)O [20:1/18:1-OAHFA, (12Z)-20-(oleoyloxy)eicos-12-enoic acid] | – | – | significantly weaker evaporation-resistant properties | phase behaviour of the film (surface pressure isotherm, BAM) [2]: does not undergo a phase transition; surface activity / spreading ability [2]: surface active lipids
CCCCCCCC/C=C\CCCCCCCC(=O)OCCCCCCCCCCCCCCCCCCCCCC(=O)O [22:0/18:1-OAHFA, 22-(oleoyloxy)docosanoic acid] | – | – | reasonable degree of evaporation resistance | –
CCCCCCCC/C=C\CCCCCCCC(=O)OCCCCCCC/C=C\CCCCCCCCCCCCCCCCCCCC(=O)O [29:1/18:1-OAHFA, (21Z)-29-(oleoyloxy)nonacos-21-enoic acid] | – | – | reasonable degree of evaporation resistance | –
CCCCCCCC/C=C\CCCCCCCC(=O)OCCCCCCCCCCCCCCCCCCCCCC [BO, behenyl oleate] | 34.48 ± 0.05 | 36.74 ± 0.92 | – | –
CCCCCCCCCCCCCCCCCCCC(=O)OC[C@H](COP(=O)([O-])OCC[N+](C)(C)C)OC(=O)CCCCCCCCCCCCCCCCCCC [DAPC, 1,2-diarachidoyl-sn-glycero-3-phosphatidylcholine] | 63.04 ± 0.21 | 64.87 ± 0.05 | – | –
CCCCCCCCCCCCCC(=O)OC[C@H](COP(=O)([O-])OCC[N+](C)(C)C)OC(=O)CCCCCCCCCCCCC [DMPC, 1,2-dimyristoyl-sn-glycero-3-phosphocholine] | 17.37 ± 0.69 | 22.74 ± 1.57 | – | –
CCCCCCCCCCCCCCCCCC(=O)OC[C@H](COP(=O)([O-])OCC[N+](C)(C)C)OC(=O)CCCCCCCCCCCCCCCCC [DSPC, 1,2-distearoyl-sn-glycero-3-phosphocholine] | 50.13 ± 0.29 | 54.67 ± 0.18 | – | –
CCCCCCCC/C=C\CCCCCCCCOC(=O)CCCCCCCCCCCCCCCCC(=O)O [R-18:0/18:1-OAHFA, 18-(oleyloxy)-18-oxo-octadecanoic acid] | 55.00 ± 0.87 | 57.53 ± 0.95 | reasonable degree of evaporation resistance | Onset Tm2 ± SD [3]: 63.20 ± 0.28; Peak Tm2 ± SD [3]: 63.88 ± 0.14
CCCCCCCC/C=C\CCCCCCCCOC(=O)CCCCCCCCCCCCCCCCCCC(=O)O [R-20:0/18:1-OAHFA, 20-(oleyloxy)-20-oxo-eicosanoic acid] | – | – | reasonable degree of evaporation resistance | –
